Measured values published in patent US5981583A (priority 1997, dated 1999).
Where two headings read alike, the source gives them in different places.

Experiments:
NF-κB [1] = type: cell-based
NF-κB [2] = type: cell-based, human
TFII D = type: cell-based; conditions: 25 μg/ml, 2 hours
NF-κB [3] = type: cell-based, human; remark: listed apart in the source
IκBa [4] = type: cell-based, human
in vitro [5] = conditions: human, u937 cells
p65 [6] = type: cell-based, human
NF-κB [7] = type: biochemical, human
Oct-1 = type: cell-based; conditions: 25 μg/ml, 2 hours
AP-1 = type: cell-based; conditions: 25 μg/ml, 2 hours
NF-κB [8] = type: cell-based; remark: listed apart in the source
p65 [9] = type: cell-based, human; remark: listed apart in the source
NF-κB [10] = type: cell-based, human; remark: listed apart in the source
c-Rel = type: cell-based
NF-κB [11] = type: cell-based, human; remark: listed apart in the source
in vitro [12] = test: in vitro
NF-κB [13] = type: cell-based, human; remark: listed apart in the source
NF-κB [14] = type: biochemical
p50 = type: cell-based
[15] = system: IκBa promoter linked to the CAT gene; type: cell-based
IκBa [16] = type: cell-based, human; remark: listed apart in the source

Q: Which “TNF-mediated activation of NF-κB” value (NF-κB [1]) does the source give for `C=C(C)[C@]12C[C@@H](C)[C@@]34O[C@](Cc5ccccc5)(O[C@@H]1[C@@H]3C=C(COC(=O)Cc1ccc(O)c(OC)c1)C[C@]1(O)C(=O)C(C)=C[C@@H]41)O2` [resiniferatoxin] here?
A: Its value is “completely inhibited”.

Q: And the “activation of NF-κB by the substance itself” value (NF-κB [1])?
A: Its value is “did not activate NF-κB”.

Q: And the “concentration sufficient for maximum inhibition of the TNF response” value (NF-κB [1])?
A: Its value is 40 µM.

Q: What about the “potency relative to capsaicin” value (NF-κB [1]) of the same molecule?
A: The value was “approximately 8 fold”.

Q: With `O=C(C=Cc1ccc(O)c(O)c1)OCCCc1ccccc1` [compound 4] as the molecule, how does the “activity in inhibiting NF-κB activation relative to CAPE” value (NF-κB [2]) read?
A: The value was “less active than CAPE”.

Q: And the “effect of CAPE analogues on TNF-induced NF-κB activation” value (NF-κB [2])?
A: The value was “significant loss of inhibition”.

Q: Which results are given for `O=C(C=Cc1ccc(O)c(O)c1O)OCCc1ccccc1` [compound 3]?
A: activity in inhibiting NF-κB activation relative to CAPE (NF-κB [2]): less active than CAPE; effect of CAPE analogues on TNF-induced NF-κB activation (NF-κB [2]): loss of potency

Q: Which “activity in inhibiting NF-κB activation relative to CAPE” value (NF-κB [2]) does the source give for `COc1ccc(C=CC(=O)OCCc2ccccc2)cc1OC` [compound 2] here?
A: Its value is “less active than CAPE”.

Q: Which “DNA-binding ability of TFII D” value (TFII D) does the source give for `O=C(/C=C/c1ccc(O)c(O)c1)OCCc1ccccc1` [CAPE, caffeic acid (3,4-dihydroxy cinnamic acid) phenethyl ester] here?
A: Its value is “did not inhibit”.

Q: What about the “activation of NF-κB induced by H2O2” value (NF-κB [3]) of the same molecule?
A: Its value is “completely blocked”.

Q: And the “activation of NF-κB induced by ceramide” value (NF-κB [3])?
A: The value was “completely blocked”.

Q: What about the “activation of NF-κB induced by okadaic acid” value (NF-κB [3]) of the same molecule?
A: The value was “completely blocked”.

Q: And the “activation of NF-κB induced by phorbol myristate acetate” value (NF-κB [3])?
A: Its value is “completely blocked”.

Q: And the “TNF-induced rate of degradation of IκBa” value (IκBa [4])?
A: Its value is “did not affect significantly”.

Q: And the “cytoplasmic pool of IκBa, substance alone” value (IκBa [4])?
A: Its value is “no effect”.

Q: And the “resynthesis of IκBa after TNF” value (IκBa [4])?
A: Its value is “did delay its resynthesis”.

Q: What about the viability (in vitro [5]) of the same molecule?
A: The viability was > 98%.

Q: And the “TNF-induced appearance of p65 in the nucleus” value (p65 [6])?
A: The value was “blocked”.

Q: What about the “cytoplasmic pool of p65” value (p65 [6]) of the same molecule?
A: The value was “none of the treatments altered significantly”.

Q: And the “binding of NF-κB to DNA, deoxycholate-treated cytoplasmic extracts” value (NF-κB [7])?
A: The value was “interfered with the binding of NF-κB proteins to DNA”.

Q: What about the “binding of NF-κB to DNA, nuclear extracts from TNF-preactivated cells” value (NF-κB [7]) of the same molecule?
A: Its value is “prevented NF-κB from binding to DNA”.

Q: And the “DNA-binding ability of Oct-1” value (Oct-1)?
A: The value was “did not inhibit”.

Q: And the “DNA-binding ability of AP-1” value (AP-1)?
A: The value was “did not inhibit”.

Q: And the “CAPE-induced inhibition of NF-κB activation in the presence of reducing agents” value (NF-κB [2])?
A: Its value is “reversed completely”.

Q: And the “activation of NF-κB by the substance alone” value (NF-κB [2])?
A: Its value is “No activation”.

Q: What about the “concentration with maximum effect on TNF-dependent activation of NF-κB” value (NF-κB [2]) of the same molecule?
A: Its value is 25 µg/mL.

Q: What about the “inhibition of TNF-dependent activation of NF-κB” value (NF-κB [2]) of the same molecule?
A: Its value is “inhibited the TNF-dependent activation of NF-κB in a dose-dependent manner”.

Q: What about the “kinetics of inhibition of TNF response: cotreatment with TNF” value (NF-κB [2]) of the same molecule?
A: The value was “not effective”.

Q: What about the “kinetics of inhibition of TNF response: pretreatment” value (NF-κB [2]) of the same molecule?
A: Its value is “inhibited only when the cells were pretreated”.

Q: What does the source list for `O=C(C=Cc1cc(O)ccc1O)OCCc1ccccc1` [compound 1]?
A: activity in inhibiting NF-κB activation relative to CAPE (NF-κB [2]): as active as CAPE; effect of CAPE analogues on TNF-induced NF-κB activation (NF-κB [2]): increased the potency of inhibition

Q: Which “concentration with almost complete inhibition of TNF-induced NF-κB” value (NF-κB [8]) does the source give for `COc1cc(CNC(=O)CCCCC=CC(C)C)ccc1O` [capsaicin, 8-methyl-N-vanillyl-6-nonenamid] here?
A: The value was 200 µM.

Q: And the “TNF-induced migration of p65 into the nucleus” value (p65 [9])?
A: Its value is “did block the TNF-induced migration”.

Q: What about the “level of cytoplasmic p65, capsaicin alone” value (p65 [9]) of the same molecule?
A: The value was “remained unaffected”.

Q: And the “migration of p65 protein into the nucleus, capsaicin by itself” value (p65 [9])?
A: The value was “did not induce this migration”.

Q: What about the “NF-κB activation mediated through okadaic acid” value (NF-κB [10]) of the same molecule?
A: Its value is “inhibited only partially”.

Q: And the “phorbol myristate acetate-induced activation of NF-κB” value (NF-κB [10])?
A: The value was “completely blocked”.

Q: And the “level of c-Rel protein in cytosolic fraction” value (c-Rel)?
A: The value was “neither capsaicin by itself or in combination with TNF had any effect”.

Q: What about the “NF-κB activation on co-incubation with TNF” value (NF-κB [11]) of the same molecule?
A: The value was “did not block NF-κB activation”.

Q: What about the “activation of NF-κB by 10 nM TNF” value (NF-κB [11]) of the same molecule?
A: Its value is “completely inhibited”.

Q: What about the “activation of NF-κB by the substance itself” value (NF-κB [11]) of the same molecule?
A: Its value is “did not activate NF-κB”.

Q: What about the “concentration that inhibited most of the activation induced by TNF” value (NF-κB [11]) of the same molecule?
A: Its value is 200 to 300 µM.

Q: What about the “pre-incubation time for maximum inhibition of the response to TNF” value (NF-κB [11]) of the same molecule?
A: The value was 120 min.

Q: And the viability at 2 h, 100 µM (in vitro [12])?
A: The viability at 2 h, 100 µM was 99%.

Q: What about the viability at 2 h, 200 µM (in vitro [12]) of the same molecule?
A: Its viability at 2 h, 200 µM is 98%.

Q: What about the viability at 2 h, 300 µM (in vitro [12]) of the same molecule?
A: Its viability at 2 h, 300 µM is 95%.

Q: And the “concentration with almost complete inhibition of TNF-induced NF-κB” value (NF-κB [13])?
A: Its value is 200 µM.

Q: And the “ability of NF-κB to bind to the DNA, deoxycholate-treated cytoplasmic extracts from capsaicin-exposed cells” value (NF-κB [14])?
A: Its value is “did not modify”.

Q: And the “ability of NF-κB to bind to the DNA, nuclear extracts exposed to capsaicin after TNF treatment” value (NF-κB [14])?
A: The value was “did not modify”.

Q: And the “level of p50 protein in cytosolic fraction” value (p50)?
A: Its value is “neither capsaicin by itself or in combination with TNF had any effect”.

Q: What about the “TNF-enhanced CAT activity, pIκBCAT-transfected cells” value [15] of the same molecule?
A: The value was “reduced significantly”.

Q: And the “TNF-mediated degradation of IκBa” value (IκBa [16])?
A: The value was “abolished”.

Q: And the “appearance of TNF-mediated slower-migrating band of IκBa” value (IκBa [16])?
A: The value was “abolished”.

Q: And the “level of cytoplasmic IκBa, capsaicin alone” value (IκBa [16])?
A: Its value is “remained unaffected”.
